From patent publication US20160113921A1, “COMBINATION THERAPY COMPRISING OXAZOLIDINONE-QUINOLONES FOR USE IN TREATING BACTERIAL INFECTIONS” (MORPHOCHEM AKTIENGESELLSCHAFT FÜR KOMBINATORISCHE CHEMIE, priority 2013, published 2016)
Values after ≈ are worked out from the molar mass of the structure shown. Where two headings read alike, the source gives them in different places.

Columns and labels:
Format in all cases: cell-based
[1] = system: S. aureus DSM 11823, clone 16 (MSSA, quinolone-resistant); assay: microbe, parasite or virus in culture; details: Staphylococcus aureus
Description: (§1) MIC-testing was done immediately after preparation of the dilutions. All tests were done in duplicate and repeated once on a separate occasion.
(§2) 1 mL of the bacterial suspension was transferred into a tube containing 10 mL CAMHB and was vortexed thoroughly. (S. pneumoniae 1 mL in 10 mL CAMHB+5% lysed horse blood). Columns 1-15 of the 96-well plate were inoculated with 5 μL of this suspension (1-15=antibacterial solution, 16=sterile medium without test item).
(§3) Turbidity was read visually with a mirror.

[2] = system: Gram-positive strains tested; assay: MIC testing, statements on the Gram-positive strain panel; details: read-out: MIC (inhibitory concentration)
Excerpt: as §1

S. pneumoniae ATCC 33400 = assay: MIC, broth microdilution (CLSI), CAMHB; details: Streptococcus pneumoniae
Description: as §1, §2, §3

S. aureus ATCC 29213 = assay: MIC, broth microdilution (CLSI), CAMHB; details: Staphylococcus aureus
Description: as §1, §2, §3

E. faecalis ATCC 29212 = assay: MIC, broth microdilution (CLSI), CAMHB; details: Enterococcus faecalis
Description: as §1, §2, §3

[3] = system: S. aureus Visa Mu 50 (MRSA, vancomycin intermediate susceptible); assay: MIC, broth microdilution (CLSI), CAMHB; details: Staphylococcus aureus
Description: as §1, §2, §3

[4] = system: S. aureus NRS-119 (MRSA, linezolid- and quinolone-resistant); assay: MIC, broth microdilution (CLSI), CAMHB; details: Staphylococcus aureus
Description: as §1, §2, §3

E. faecium DSMZ 2146 = assay: MIC, broth microdilution (CLSI), CAMHB; details: Enterococcus faecium
Description: as §1, §2, §3

[5] = system: S. pneumoniae BAY 19397 (penicillin-, macrolide-, quinolone-resistant); assay: MIC, broth microdilution (CLSI), CAMHB; details: Streptococcus pneumoniae
Description: as §1, §2, §3

E. faecalis V583 (VanB) = assay: MIC, broth microdilution (CLSI), CAMHB; details: Enterococcus faecalis
Description: as §1, §2, §3

[6] = system: S. aureus ATCC 33593 (MRSA); assay: MIC, broth microdilution (CLSI), CAMHB; details: Staphylococcus aureus
Description: as §1, §2, §3

[7] = system: E. faecium UW 3695 (linezolid and quinolone-resistant); assay: MIC, broth microdilution (CLSI), CAMHB; details: Enterococcus faecium
Description: as §1, §2, §3

[8] = system: Gram-negative test strains (Enterobacteriaceae, non-fermenters); assay: MIC testing, statements on the Gram-negative strain panel
Excerpt: as §1

[9] = system: K. pneumoniae NRZ-00002 (OXA-48); assay: MIC, broth microdilution (CLSI), CAMHB; details: Klebsiella pneumoniae
Description: as §1, §2, §3

K. pneumoniae ATCC 13883 = assay: MIC, broth microdilution (CLSI), CAMHB; details: Klebsiella pneumoniae
Description: as §1, §2, §3

P. mirabilis ATCC 9240 = assay: MIC, broth microdilution (CLSI), CAMHB; details: Proteus mirabilis
Description: as §1, §2, §3

[10] = system: E. coli GNS-2601 (ESBL CTX-M-15); assay: MIC, broth microdilution (CLSI), CAMHB; details: Escherichia coli
Description: as §1, §2, §3

E. coli ATCC 25922 = assay: MIC, broth microdilution (CLSI), CAMHB; details: Escherichia coli
Description: as §1, §2, §3

[11] = system: E. coli NRZ-00302 (metallo β-lactamase NDM-1); assay: MIC, broth microdilution (CLSI), CAMHB; details: Escherichia coli
Description: as §1, §2, §3

[12] = system: E. coli NRZ-00401 (metallo β-lactamase VIM-1); assay: MIC, broth microdilution (CLSI), CAMHB; details: Escherichia coli
Description: as §1, §2, §3

E. cloacae ATCC 13047 = assay: MIC, broth microdilution (CLSI), CAMHB; details: Enterobacter cloacae
Description: as §1, §2, §3

[13] = system: P. aeruginosa NRZ-00425 (VIM-1); assay: MIC, broth microdilution (CLSI), CAMHB; details: Pseudomonas aeruginosa
Description: as §1, §2, §3

P. aeruginosa ATCC 10145 = assay: MIC, broth microdilution (CLSI), CAMHB; details: Pseudomonas aeruginosa
Description: as §1, §2, §3

[14] = system: E. cloacae NRZ-00239 (VIM-1); assay: MIC, broth microdilution (CLSI), CAMHB; details: Enterobacter cloacae
Description: as §1, §2, §3

[15] = system: K. pneumoniae NRZ-00535 (VIM-1); assay: MIC, broth microdilution (CLSI), CAMHB; details: Klebsiella pneumoniae
Description: as §1, §2, §3

[16] = system: P. mirabilis NRZ-00185 (AmpC, type CMY-2); assay: MIC, broth microdilution (CLSI), CAMHB; details: Proteus mirabilis
Description: as §1, §2, §3

[17] = system: K. pneumoniae NRZ-00103 (KPC-2); assay: MIC, broth microdilution (CLSI), CAMHB; details: Klebsiella pneumoniae
Description: as §1, §2, §3

[18] = monosubstance, Spn ATCC33400, read-out: MIC
[19] = monosubstance, Sa ATCC29213, read-out: MIC
[20] = monosubstance, Ef ATCC29212, read-out: MIC
[21] = monosubstance, Sa VisaMu50, read-out: MIC
[22] = monosubstance, Sa NRS119, read-out: MIC
[23] = monosubstance, Efc DSMZ2146, read-out: MIC
[24] = monosubstance, Spn 19397, read-out: MIC
[25] = monosubstance, Ef V583, read-out: MIC
[26] = monosubstance, Sa ATCC33593, read-out: MIC
[27] = monosubstance, Efc UW3695, read-out: MIC

Structure (SMILES)	MIC [1] [µg/mL]	MIC (S. pneumoniae ATCC 33400; [18]) [µg/mL]	MIC (S. aureus ATCC 29213; [19]) [µg/mL]	MIC (E. faecalis ATCC 29212; [20]) [µg/mL]	MIC [3, 21] [µg/mL]	MIC [4, 22] [µg/mL]	MIC (E. faecium DSMZ 2146; [23]) [µg/mL]	MIC [5, 24] [µg/mL]	MIC (E. faecalis V583 (VanB); [25]) [µg/mL]	MIC [6, 26] [µg/mL]	MIC [7, 27] [µg/mL]	MIC (S. pneumoniae ATCC 33400; ATCC33400) [µg/mL]	MIC (S. aureus ATCC 29213; ATCC29213) [µg/mL]	MIC (E. faecalis ATCC 29212; ATCC29212) [µg/mL]	MIC [3] [µg/mL]	MIC [4] [µg/mL]	MIC (E. faecium DSMZ 2146; DSMZ2146) [µg/mL]	MIC [5] [µg/mL]	MIC (E. faecalis V583 (VanB)) [µg/mL]	MIC [6] [µg/mL]	further results
CC(=O)NC[C@H]1CN(c2ccc(N3CCOCC3)c(F)c2)C(=O)O1 [linezolid]	2 (≈ 5.93 µM)	2 (≈ 5.93 µM)	2 (≈ 5.93 µM)	4 (≈ 11.9 µM)	4 (≈ 11.9 µM)	64 (≈ 190 µM)	4 (≈ 11.9 µM)	1 (≈ 2.96 µM)	2 (≈ 5.93 µM)	2 (≈ 5.93 µM)	16 (≈ 47.4 µM)	–	–	–	–	–	–	–	–	–	MIC ([2]; all the test strains except S. aureus NRS-119 and E. faecium UW 3695): < 4 µg/mL
COc1c(N2C[C@@H]3CCCN[C@@H]3C2)c(F)cc2c(=O)c(C(=O)O)cn(C3CC3)c12 [moxifloxacin]	–	0.25 (≈ 0.623 µM)	0.12 (≈ 0.299 µM)	0.5 (≈ 1.25 µM)	8 (≈ 19.9 µM)	8 (≈ 19.9 µM)	0.5 (≈ 1.25 µM)	4 (≈ 9.96 µM)	0.25 (≈ 0.623 µM)	0.06 (≈ 0.149 µM)	64 (≈ 159 µM)	–	–	–	–	–	–	–	–	–	–
CN(C)c1cc(NC(=O)CNC(C)(C)C)c(O)c2c1C[C@H]1C[C@H]3[C@H](N(C)C)C(O)=C(C(N)=O)C(=O)[C@@]3(O)C(O)=C1C2=O [tigecycline]	0.125 (≈ 0.213 µM)	–	–	–	–	–	–	–	–	–	–	0.0075 (≈ 0.0128 µM)	0.25 (≈ 0.427 µM)	0.25 (≈ 0.427 µM)	0.5 (≈ 0.854 µM)	0.25 (≈ 0.427 µM)	0.25 (≈ 0.427 µM)	0.0075 (≈ 0.0128 µM)	0.25 (≈ 0.427 µM)	0.25 (≈ 0.427 µM)	MIC [2]: < 0.5 µg/mL; MIC [8]: > 2 µg/mL; MIC [9]: 2 µg/mL (≈ 3.41 µM); MIC (K. pneumoniae ATCC 13883; ATCC13883): 2 µg/mL (≈ 3.41 µM); MIC (P. mirabilis ATCC 9240; ATCC9240): 8 µg/mL (≈ 13.7 µM); MIC [10]: 4 µg/mL (≈ 6.83 µM); MIC (E. coli ATCC 25922; ATCC25922): 0.5 µg/mL (≈ 0.854 µM); MIC [11]: 2 µg/mL (≈ 3.41 µM); MIC [12]: 2 µg/mL (≈ 3.41 µM); MIC (E. cloacae ATCC 13047; ATCC13047): 2 µg/mL (≈ 3.41 µM); MIC [13]: 32 µg/mL (≈ 54.6 µM); MIC (P. aeruginosa ATCC 10145; ATCC10145): 16 µg/mL (≈ 27.3 µM); MIC [14]: 2 µg/mL (≈ 3.41 µM); MIC [7]: 0.25 µg/mL (≈ 0.427 µM); MIC [15]: 2 µg/mL (≈ 3.41 µM); MIC [16]: 8 µg/mL (≈ 13.7 µM); MIC [17]: 4 µg/mL (≈ 6.83 µM)
NC[C@H]1O[C@H](O[C@H]2[C@H](O)[C@@H](O[C@H]3O[C@H](CO)[C@@H](O)[C@H](N)[C@H]3O)[C@H](N)C[C@@H]2N)[C@H](N)C[C@@H]1O [tobramycin]	–	–	–	–	–	–	–	–	–	–	–	–	–	–	–	–	–	–	–	–	MIC ([8]; remainder / remaining / all other test strains, as worded for each agent, read-out: MIC): > 4 µg/mL; MIC ([9]; monosubstance, Kp NRZ00002, read-out: MIC): 16 µg/mL (≈ 34.2 µM); MIC (K. pneumoniae ATCC 13883; monosubstance, Kp ATCC13883, read-out: MIC): 0.125 µg/mL (≈ 0.267 µM); MIC (P. mirabilis ATCC 9240; monosubstance, Pm ATCC9240, read-out: MIC): 0.5 µg/mL (≈ 1.07 µM); MIC ([10]; monosubstance, Ec GNS2601, read-out: MIC): 32 µg/mL (≈ 68.4 µM); MIC (E. coli ATCC 25922; monosubstance, Ec ATCC25922, read-out: MIC): 1 µg/mL (≈ 2.14 µM); MIC ([11]; monosubstance, Ec NRZ00302, read-out: MIC): 64 µg/mL (≈ 137 µM); MIC ([12]; monosubstance, Ec NRZ00401, read-out: MIC): 4 µg/mL (≈ 8.56 µM); MIC (E. cloacae ATCC 13047; monosubstance, Ecl ATCC13047, read-out: MIC): 0.25 µg/mL (≈ 0.535 µM); MIC ([13]; monosubstance, Pa NRZ00425, read-out: MIC): > 128 µg/mL; MIC (P. aeruginosa ATCC 10145; monosubstance, Pa ATCC10145, read-out: MIC): 0.5 µg/mL (≈ 1.07 µM); MIC ([14]; monosubstance, Ecl NRZ00239, read-out: MIC): 4 µg/mL (≈ 8.56 µM); MIC ([15]; monosubstance, Kp NRZ00535, read-out: MIC): 8 µg/mL (≈ 17.1 µM); MIC ([16]; monosubstance, Pm NRZ00185, read-out: MIC): 0.125 µg/mL (≈ 0.267 µM); MIC ([17]; monosubstance, Kp NRZ00103, read-out: MIC): 16 µg/mL (≈ 34.2 µM)
CN[C@H](CC(C)C)C(=O)N[C@H]1C(=O)N[C@@H](CC(N)=O)C(=O)N[C@H]2C(=O)N[C@H]3C(=O)N[C@H](C(=O)N[C@H](C(=O)O)c4cc(O)cc(O)c4-c4cc3ccc4O)[C@H](O)c3ccc(c(Cl)c3)Oc3cc2cc(c3O[C@@H]2O[C@H](CO)[C@@H](O)[C@H](O)[C@H]2O[C@H]2C[C@](C)(N)[C@H](O)[C@H](C)O2)Oc2ccc(cc2Cl)[C@H]1O [vancomycin]	0.015 (≈ 0.0104 µM)	–	–	–	–	–	–	–	–	–	–	0.25 (≈ 0.173 µM)	0.25 (≈ 0.173 µM)	1 (≈ 0.69 µM)	2 (≈ 1.38 µM)	1 (≈ 0.69 µM)	0.25 (≈ 0.173 µM)	0.25 (≈ 0.173 µM)	32 (≈ 22.1 µM)	0.5 (≈ 0.345 µM)	MIC [7]: 0.25 µg/mL (≈ 0.173 µM)
